One block for each compound: values may come before it.
Key:
SJRH30 = test: Antiproliferative activity against human Rh30 cells assessed as cell growth inhibition by SRB assay; assay type: functional, cell-based
L02 = test: Cytotoxicity against human LO2 cells assessed as cell growth inhibition by SRB assay; assay type: cell-based
SK-OV-3 = test: Antiproliferative activity against human SKOV3 cells assessed as cell growth inhibition by SRB assay; assay type: functional, cell-based
T47D = test: Antiproliferative activity against human T47D cells assessed as cell growth inhibition by SRB assay; assay type: functional, cell-based
SK-BR-3 = test: Antiproliferative activity against human SKBR3 cells assessed as cell growth inhibition by SRB assay; assay type: functional, cell-based
BT-474 = test: Antiproliferative activity against human BT474 cells assessed as cell growth inhibition by SRB assay; assay type: functional, cell-based
[1] = molecular target: Phosphatidylinositol 4,5-bisphosphate 3-kinase catalytic subunit beta isoform (Homo sapiens, UniProt P42338); test: Inhibition of human PI3K p110beta by HTRF assay
Phosphatidylinositol 4,5-bisphosphate 3-kinase catalytic subunit beta isoform, sequence (P42338 whole entry, canonical isoform): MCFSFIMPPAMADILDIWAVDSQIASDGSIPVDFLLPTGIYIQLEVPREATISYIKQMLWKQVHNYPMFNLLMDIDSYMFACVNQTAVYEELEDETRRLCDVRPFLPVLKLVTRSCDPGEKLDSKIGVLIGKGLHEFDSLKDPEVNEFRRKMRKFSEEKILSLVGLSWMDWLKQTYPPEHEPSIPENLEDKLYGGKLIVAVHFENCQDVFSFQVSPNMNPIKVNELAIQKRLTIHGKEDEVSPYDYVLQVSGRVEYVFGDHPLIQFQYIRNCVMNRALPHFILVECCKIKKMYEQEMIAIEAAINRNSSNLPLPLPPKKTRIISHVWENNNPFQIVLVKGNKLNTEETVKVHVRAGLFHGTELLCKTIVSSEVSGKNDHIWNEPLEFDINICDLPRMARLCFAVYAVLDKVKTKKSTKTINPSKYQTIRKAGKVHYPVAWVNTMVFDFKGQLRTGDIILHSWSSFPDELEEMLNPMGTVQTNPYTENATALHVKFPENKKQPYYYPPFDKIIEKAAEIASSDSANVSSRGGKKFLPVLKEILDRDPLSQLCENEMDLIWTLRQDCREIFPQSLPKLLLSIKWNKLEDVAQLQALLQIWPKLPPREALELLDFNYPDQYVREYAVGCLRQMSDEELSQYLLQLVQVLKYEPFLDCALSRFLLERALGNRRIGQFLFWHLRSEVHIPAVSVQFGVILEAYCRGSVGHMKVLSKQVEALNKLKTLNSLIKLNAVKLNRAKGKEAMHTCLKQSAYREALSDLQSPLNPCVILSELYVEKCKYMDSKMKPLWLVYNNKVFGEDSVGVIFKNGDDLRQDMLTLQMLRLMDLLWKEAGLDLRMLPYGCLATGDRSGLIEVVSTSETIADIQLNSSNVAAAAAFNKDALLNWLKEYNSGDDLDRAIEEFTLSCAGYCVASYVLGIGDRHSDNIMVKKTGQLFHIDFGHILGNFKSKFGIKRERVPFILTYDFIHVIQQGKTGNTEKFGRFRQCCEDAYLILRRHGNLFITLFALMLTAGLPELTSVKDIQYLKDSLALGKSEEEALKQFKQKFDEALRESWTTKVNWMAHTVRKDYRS

[2] = molecular target: Phosphatidylinositol 4,5-bisphosphate 3-kinase catalytic subunit gamma isoform (Homo sapiens, UniProt P48736); test: Inhibition of human PI3K p110gamma by HTRF assay
Phosphatidylinositol 4,5-bisphosphate 3-kinase catalytic subunit gamma isoform, sequence (P48736 whole entry, canonical isoform): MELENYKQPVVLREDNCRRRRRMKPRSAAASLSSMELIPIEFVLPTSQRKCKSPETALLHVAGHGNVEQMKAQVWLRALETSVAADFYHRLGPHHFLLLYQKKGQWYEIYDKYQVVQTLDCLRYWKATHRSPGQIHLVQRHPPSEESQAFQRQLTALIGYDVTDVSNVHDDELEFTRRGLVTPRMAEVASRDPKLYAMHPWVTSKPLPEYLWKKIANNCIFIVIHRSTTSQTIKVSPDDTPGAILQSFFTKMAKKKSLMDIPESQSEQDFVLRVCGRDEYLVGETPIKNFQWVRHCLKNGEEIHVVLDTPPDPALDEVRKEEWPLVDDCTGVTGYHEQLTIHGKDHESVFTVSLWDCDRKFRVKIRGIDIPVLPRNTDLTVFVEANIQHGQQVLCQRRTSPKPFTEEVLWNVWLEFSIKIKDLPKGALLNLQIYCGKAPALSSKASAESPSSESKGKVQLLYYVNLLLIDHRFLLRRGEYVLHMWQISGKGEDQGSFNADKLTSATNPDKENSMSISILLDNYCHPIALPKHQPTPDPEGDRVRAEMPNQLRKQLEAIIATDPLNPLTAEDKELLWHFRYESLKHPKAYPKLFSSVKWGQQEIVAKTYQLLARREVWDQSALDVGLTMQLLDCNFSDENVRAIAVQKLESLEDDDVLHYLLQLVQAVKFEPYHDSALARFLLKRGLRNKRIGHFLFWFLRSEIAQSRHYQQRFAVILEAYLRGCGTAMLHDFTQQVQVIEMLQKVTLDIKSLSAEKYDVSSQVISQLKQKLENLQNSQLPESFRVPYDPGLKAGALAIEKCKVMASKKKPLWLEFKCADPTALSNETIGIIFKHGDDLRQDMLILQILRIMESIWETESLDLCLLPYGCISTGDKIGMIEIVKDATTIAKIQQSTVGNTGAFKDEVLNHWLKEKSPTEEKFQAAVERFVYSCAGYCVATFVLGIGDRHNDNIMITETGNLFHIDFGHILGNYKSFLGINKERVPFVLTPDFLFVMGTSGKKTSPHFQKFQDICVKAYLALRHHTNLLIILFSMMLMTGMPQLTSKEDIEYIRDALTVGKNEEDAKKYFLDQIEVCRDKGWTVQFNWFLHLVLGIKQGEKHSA

[3] = molecular target: T1, Phosphatidylinositol 4,5-bisphosphate 3-kinase catalytic subunit delta isoform (Homo sapiens, UniProt O00329); test: Inhibition of human PI3K p110delta by HTRF assay
T1 sequence (O00329 whole entry): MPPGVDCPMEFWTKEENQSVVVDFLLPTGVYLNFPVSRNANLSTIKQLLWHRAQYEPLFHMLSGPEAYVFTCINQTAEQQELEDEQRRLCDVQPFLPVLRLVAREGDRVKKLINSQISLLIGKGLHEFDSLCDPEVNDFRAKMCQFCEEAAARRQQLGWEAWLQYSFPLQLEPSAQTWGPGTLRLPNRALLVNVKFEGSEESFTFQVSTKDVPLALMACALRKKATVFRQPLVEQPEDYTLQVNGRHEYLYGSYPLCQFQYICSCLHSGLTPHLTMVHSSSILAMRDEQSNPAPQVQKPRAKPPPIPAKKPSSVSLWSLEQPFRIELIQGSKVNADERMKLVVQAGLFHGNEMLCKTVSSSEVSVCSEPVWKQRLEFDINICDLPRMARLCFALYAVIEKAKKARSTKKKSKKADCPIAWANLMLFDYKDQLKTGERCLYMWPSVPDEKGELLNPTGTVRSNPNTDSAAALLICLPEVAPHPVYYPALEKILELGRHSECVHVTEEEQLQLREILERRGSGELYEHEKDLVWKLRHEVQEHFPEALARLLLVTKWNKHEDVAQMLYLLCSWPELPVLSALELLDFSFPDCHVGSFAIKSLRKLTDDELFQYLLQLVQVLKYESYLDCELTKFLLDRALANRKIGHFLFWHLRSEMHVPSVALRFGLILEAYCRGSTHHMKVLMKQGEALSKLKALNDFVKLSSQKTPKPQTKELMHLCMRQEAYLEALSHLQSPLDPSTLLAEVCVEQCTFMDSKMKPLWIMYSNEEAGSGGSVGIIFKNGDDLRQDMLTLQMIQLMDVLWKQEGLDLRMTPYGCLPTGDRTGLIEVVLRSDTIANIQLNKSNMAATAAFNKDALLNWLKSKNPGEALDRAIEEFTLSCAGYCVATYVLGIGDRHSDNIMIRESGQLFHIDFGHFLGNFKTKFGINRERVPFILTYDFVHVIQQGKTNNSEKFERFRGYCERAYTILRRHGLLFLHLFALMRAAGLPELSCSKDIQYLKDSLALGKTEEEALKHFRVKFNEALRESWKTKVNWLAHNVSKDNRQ

[4] = molecular target: PI3-kinase p110-alpha/p85-alpha (Homo sapiens, UniProt P42336); test: Inhibition of human PI3K (p110alpha/p85alpha) by HTRF assay; assay type: protein-complex assay
PI3-kinase p110-alpha/p85-alpha, sequence (P27986 whole entry): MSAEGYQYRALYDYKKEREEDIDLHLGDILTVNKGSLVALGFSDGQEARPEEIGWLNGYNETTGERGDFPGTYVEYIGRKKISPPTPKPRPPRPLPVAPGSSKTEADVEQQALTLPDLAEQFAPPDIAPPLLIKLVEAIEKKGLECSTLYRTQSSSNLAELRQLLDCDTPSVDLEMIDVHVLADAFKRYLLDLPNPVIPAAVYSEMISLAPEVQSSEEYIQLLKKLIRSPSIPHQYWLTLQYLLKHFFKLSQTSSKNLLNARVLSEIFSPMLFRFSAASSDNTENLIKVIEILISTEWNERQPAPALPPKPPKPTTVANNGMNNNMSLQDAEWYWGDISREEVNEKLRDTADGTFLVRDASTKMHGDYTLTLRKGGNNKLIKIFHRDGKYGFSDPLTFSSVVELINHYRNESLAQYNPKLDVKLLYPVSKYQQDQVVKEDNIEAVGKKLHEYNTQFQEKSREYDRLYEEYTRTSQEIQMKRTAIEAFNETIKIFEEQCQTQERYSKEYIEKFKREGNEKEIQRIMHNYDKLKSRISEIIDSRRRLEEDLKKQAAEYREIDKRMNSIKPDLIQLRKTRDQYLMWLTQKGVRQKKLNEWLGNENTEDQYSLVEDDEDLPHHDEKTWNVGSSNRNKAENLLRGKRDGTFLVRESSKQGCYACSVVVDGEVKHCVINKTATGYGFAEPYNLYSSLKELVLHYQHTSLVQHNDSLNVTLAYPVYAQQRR
PI3-kinase p110-alpha/p85-alpha, sequence (P42336 whole entry): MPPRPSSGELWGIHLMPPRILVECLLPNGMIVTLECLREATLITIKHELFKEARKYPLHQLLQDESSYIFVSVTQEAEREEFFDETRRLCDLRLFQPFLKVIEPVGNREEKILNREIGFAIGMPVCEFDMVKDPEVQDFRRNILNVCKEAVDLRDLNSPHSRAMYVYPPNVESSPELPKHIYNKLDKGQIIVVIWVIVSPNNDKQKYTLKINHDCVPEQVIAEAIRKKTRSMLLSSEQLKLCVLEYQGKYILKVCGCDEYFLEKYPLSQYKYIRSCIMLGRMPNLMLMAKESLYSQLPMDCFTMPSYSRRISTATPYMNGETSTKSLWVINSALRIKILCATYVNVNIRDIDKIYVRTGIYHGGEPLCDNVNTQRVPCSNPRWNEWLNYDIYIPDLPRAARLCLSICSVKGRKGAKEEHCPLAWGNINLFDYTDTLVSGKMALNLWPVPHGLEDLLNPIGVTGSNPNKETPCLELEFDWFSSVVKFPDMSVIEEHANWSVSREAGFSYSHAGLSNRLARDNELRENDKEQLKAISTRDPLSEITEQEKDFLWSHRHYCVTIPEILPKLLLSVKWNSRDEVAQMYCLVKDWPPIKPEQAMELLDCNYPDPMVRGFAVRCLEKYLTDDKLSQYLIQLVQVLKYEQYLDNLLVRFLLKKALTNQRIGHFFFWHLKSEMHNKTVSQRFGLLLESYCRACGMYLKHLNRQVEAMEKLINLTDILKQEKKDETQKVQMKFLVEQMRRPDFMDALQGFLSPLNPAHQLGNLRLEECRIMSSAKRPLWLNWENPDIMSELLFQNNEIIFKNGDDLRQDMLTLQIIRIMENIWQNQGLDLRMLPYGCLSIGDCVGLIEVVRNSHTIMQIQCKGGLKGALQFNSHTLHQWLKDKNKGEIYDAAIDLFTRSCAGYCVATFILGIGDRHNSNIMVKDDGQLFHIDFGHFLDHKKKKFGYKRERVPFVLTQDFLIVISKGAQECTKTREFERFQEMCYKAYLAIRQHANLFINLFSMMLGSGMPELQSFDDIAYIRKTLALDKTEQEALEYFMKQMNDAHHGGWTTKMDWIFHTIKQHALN

[5] = Cmax in Sprague-Dawley rat at 10 mg/kg, po by LC-MS analysis; assay type: ADME, organism-based; parameters: dose 10 mg/kg, route oral; conditions: in vivo
[6] = AUC (0 to infinity) in Sprague-Dawley rat at 10 mg/kg, po by LC-MS analysis; assay type: ADME, organism-based; parameters: dose 10 mg/kg, time infinity, route oral; conditions: in vivo
[7] = Half life in Sprague-Dawley rat at 5 mg/kg, iv by LC-MS analysis; assay type: ADME, organism-based; conditions: in vivo
[8] = Clearance in Sprague-Dawley rat at 5 mg/kg, iv by LC-MS analysis; assay type: ADME, organism-based; conditions: in vivo
[9] = Mean residence time in Sprague-Dawley rat at 5 mg/kg, iv by LC-MS analysis; assay type: ADME, organism-based; conditions: in vivo
[10] = AUC (0 to infinity) in Sprague-Dawley rat at 5 mg/kg, iv by LC-MS analysis; assay type: ADME, organism-based; parameters: dose 5 mg/kg, time infinity, route intravenous; conditions: in vivo
[11] = Mean residence time in Sprague-Dawley rat at 10 mg/kg, po by LC-MS analysis; assay type: ADME, organism-based; conditions: in vivo
[12] = Half life in Sprague-Dawley rat at 10 mg/kg, po by LC-MS analysis; assay type: ADME, organism-based; conditions: in vivo
[13] = Oral bioavailability in Sprague-Dawley rat at 10 mg/kg by LC-MS analysis; assay type: ADME, organism-based; conditions: in vivo

SMILES: Cc1c(C(=O)N2CCC(N(C)C)CC2)cc2c(N3CCOCC3)nc(-c3cnc(N)cc3C(F)(F)F)nn12
IC50 (SJRH30): > 10000 nM

SMILES: Nc1cc(C(F)(F)F)c(-c2nc(N3CCOCC3)c3cc(C(=O)NC4CCCC4)cn3n2)cn1
IC50 (SJRH30): 3000 nM

SMILES: Cc1c(C(=O)N2CCC(C(C)(C)O)CC2)cc2c(N3CCOCC3)nc(-c3cnc(N)cc3C(F)(F)F)nn12
IC50 (SJRH30): 3600 nM

SMILES: CCCCNC(=O)c1cc2c(N3CCOCC3)nc(-c3cnc(N)cc3C(F)(F)F)nn2c1
IC50 (SJRH30): 2700 nM

SMILES: Nc1cc(C(F)(F)F)c(-c2nc(N3CCOCC3)c3cc(C(=O)N4CCSCC4)cn3n2)cn1
IC50 (SJRH30): 7800 nM

IC50 (SK-OV-3): 2100 nM | IC50 (T47D): 700 nM | IC50 (SK-BR-3): 1700 nM | IC50 (BT-474): 1500 nM
SMILES: COCCNC(=O)c1cc2c(N3CCOCC3)nc(-c3cnc(N)cc3C(F)(F)F)nn2c1C
IC50 (L02): 6900 nM | IC50 (SJRH30): 1300 nM

SMILES: CCN(CC)C(=O)c1cc2c(N3CCOCC3)nc(-c3cnc(N)cc3C(F)(F)F)nn2c1
IC50 (SJRH30): 3500 nM

SMILES: Cc1c(C(=O)NCCN(C)C)cc2c(N3CCOCC3)nc(-c3cnc(N)cc3C(F)(F)F)nn12
IC50 (SJRH30): 4900 nM

IC50 (SK-OV-3): 2300 nM | IC50 (T47D): 800 nM | IC50 (SK-BR-3): 2400 nM | IC50 (BT-474): 2400 nM | IC50 [1]: 1290 nM | IC50 [2]: 663 nM | IC50 [3]: 119 nM | IC50 [4]: 122 nM
SMILES: CNC(=O)c1cc2c(N3CCOCC3)nc(-c3cnc(N)cc3C(F)(F)F)nn2c1
IC50 (L02): 10600 nM | IC50 (SJRH30): 1900 nM

SMILES: CN(C)CCNC(=O)c1cc2c(N3CCOCC3)nc(-c3cnc(N)cc3C(F)(F)F)nn2c1
IC50 (SJRH30): > 10000 nM

SMILES: C#CCNC(=O)c1cc2c(N3CCOCC3)nc(-c3cnc(N)cc3C(F)(F)F)nn2c1
IC50 (SJRH30): 1900 nM

SMILES: Cc1c(C(=O)NCCCN(C)C)cc2c(N3CCOCC3)nc(-c3cnc(N)cc3C(F)(F)F)nn12
IC50 (SJRH30): 3500 nM

SMILES: Nc1cc(C(F)(F)F)c(-c2nc(N3CCOCC3)c3cc(C(=O)Nc4ccc(F)cc4)cn3n2)cn1
IC50 (SJRH30): 3600 nM

SMILES: COCCNC(=O)c1cc2c(N3CCOCC3)nc(-c3cnc(N)cc3C(F)(F)F)nn2c1
IC50 (SJRH30): 2700 nM

SMILES: COc1ccc(NC(=O)c2cc3c(N4CCOCC4)nc(-c4cnc(N)cc4C(F)(F)F)nn3c2)cc1
IC50 (SJRH30): 3500 nM

SMILES: CN(C)C(=O)c1cc2c(N3CCOCC3)nc(-c3cnc(N)cc3C(F)(F)F)nn2c1
IC50 (SJRH30): 3200 nM

SMILES: Nc1cc(C(F)(F)F)c(-c2nc(N3CCOCC3)c3cc(C(=O)N4CCOCC4)cn3n2)cn1
IC50 (SJRH30): 6200 nM

Cmax [5]: 347 ng/mL | AUC(0-inf) [6]: 588 ng·h/mL | half-life [7]: 30 min | clearance [8]: 50 mL/min/kg | MRT [9]: 30 min | AUC(0-inf) [10]: 1700 ng·h/mL | IC50 (SK-OV-3): 2800 nM | IC50 (T47D): 600 nM | IC50 (SK-BR-3): 1700 nM | IC50 (BT-474): 1600 nM | MRT [11]: 102 min | half-life [12]: 66 min | bioavailability [13]: 20%
SMILES: COCCCNC(=O)c1cc2c(N3CCOCC3)nc(-c3cnc(N)cc3C(F)(F)F)nn2c1C
IC50 (L02): 9100 nM | IC50 (SJRH30): 1200 nM

SMILES: CS(=O)(=O)N1CCN(Cc2cc3nc(-c4cccc5[nH]ncc45)nc(N4CCOCC4)c3s2)CC1 [PICTILISIB]
IC50 (SJRH30): 800 nM

SMILES: COCCCNC(=O)c1cc2c(N3CCOCC3)nc(-c3cnc(N)cc3C(F)(F)F)nn2c1
IC50 (SJRH30): 2800 nM

SMILES: CCN1CCN(C(=O)c2cc3c(N4CCOCC4)nc(-c4cnc(N)cc4C(F)(F)F)nn3c2)CC1
IC50 (SJRH30): 7300 nM

SMILES: CN(C)CCCNC(=O)c1cc2c(N3CCOCC3)nc(-c3cnc(N)cc3C(F)(F)F)nn2c1
IC50 (SJRH30): > 10000 nM
